Measured values taken from patent US20100316609A1, “Conditionally Replicating Viruses for Cancer Therapy” (priority 2006, published 2010).

How the values were obtained:
N2A neuroblastoma cells = experiment: VPA effect on Ad.CMV-LacZ gene expression in vitro; type: cell-based
Procedure: FIG. 5A is a graph showing N2A cells transduced by Ad.CMV-LacZ, and then exposed to varying concentrations of VPA (as indicated). Twenty-four hours later, LacZ expression was analyzed. FIG. 5B is a graph showing N2A cells cultured on poly-D-lysine coated 12-well plates in NB/B27 medium, and transduced with Ad.CMV-LacZ at a multiplicity of infection (MOI) of 10. Two hours thereafter, the culture medium was replaced with medium containing 1 mM VPA or vehicle (control). The medium was changed every 24-hours thereafter, and cell aliquots were harvested at the indicated time points (1, 3, 5, 7, 10 and 12 days post infection). LacZ expression was then measured in the lysates.
VPA enhanced virally-vectored gene expression, using a panel of gene delivery platforms that include recombinant, replication-defective type 5 adenovirus vectors. […] Similar effects were also observed in several primary cells transduced by Ad-CMV-LacZ (Fan, et al., J. Virol. Methods 125:23-33 (2005)).

BALB/c mice = experiment: VPA effect on Ad-CMV-Luc gene expression in vivo; details: Ad-CMV-Luc intramuscular, VPA six days, biophotonic imaging
Procedure: In FIG. 6A luciferase-encoding adenovirus vector (Ad.CMV-Luc) was inoculated into the thigh muscle of BALB/c mice. These animals (3/group) were then treated with either VPA or with vehicle alone for six days, by twice-daily i.p. injection. Representative images obtained with the IVIS CCD camera at day 2 and 6 post Ad-infection are presented. In FIG. 6B the levels of adenovirally vectored luciferase gene expression in the mice shown in panel A were quantitated at day 2 and 6 post infection using the Living Image® 2.20.1 software (Xenogen, Alameda, Calif.).
[…] of a luciferase-expressing adenovirus vector (Ad-CMV-Luc) was inoculated into BALB/c mice, via an intramuscular route. These animals were then treated with either VPA or with vehicle alone for six days, and the expression of luciferase was analyzed over time using biophotonic imaging.

human lung fibroblasts = experiment: HIV-1 RT based cellular dNTP assay; type: cell-based
Description: A ^32P labeled 18-mer annealed to a 19-mer template was extended by HIV-1 RT with known amounts of TTP. Percent of the primer extension with each dNTP amount was plotted (B).
A highly sensitive dNTP assay capable of monitoring dNTP levels in primary cells has been described (Diamond et al., J. Biol. Chem. 279:51545-53 2004). It has been difficult to determine dNTP levels in terminally differentiated primary cells due to the lack of highly sensitive dNTP assays. […] This assay used a ^32P-labeled 18-mer primer annealed to a 19-mer template, allowing incorporation of one of four dNTPs, generating 19-mer products (FIG. 2A). Indeed, this assay is ˜250 times more sensitive than the HPLC based assay. With this assay, dNTP concentrations in primary human macrophages, CD4+ T cells, and human fibroblasts were determined (Table 3). This assay also allowed monitoring of fluctuations of cellular dNTP contents, in different cell types, or under different phases of the cell cycle or culture conditions. Primary cells such as human primary lung fibroblast cells (HFL culture with 10% serum) have 5-10 lower dNTP content than tumor cells such as PANC1 cells (Table 4). Treatment with deoxynucleoside (dNs) enhanced cellular dNTP content in human lung fibroblasts (cultured with 10% serum) by 80 fold (Table 4).

| Molecule | reporter gene (LacZ) expression (N2A neuroblastoma cells; Ad-CMV-LacZ transduced N2A cells, varying VPA, FIG. 5A) | duration of increased expression of the delivered gene post VPA-treatment (N2A neuroblastoma cells; VPA 1 mM, FIG. 5B) | expression of luciferase compared to untreated mice (BALB/c mice) | enhancement of cellular dNTP content (human lung fibroblasts; human lung fibroblasts cultured with 10% serum) [fold] | [dNTP] (human lung fibroblasts; lung fibroblasts (+dN)) | [dNTP] relative to untreated lung fibroblasts (1x) (human lung fibroblasts; lung fibroblasts (+dN)) [x] |
| --- | --- | --- | --- | --- | --- | --- |
| CCCC(CCC)C(=O)O [VPA, Valproic acid] | dose-dependent increase | more than 12 days | increased expression of luciferase |  |  |  |
| deoxynucleosides [dNs] |  |  |  | 80 | 20~90 μM | ~80 |
